The supplement of paper PMC8837787

These molecules were tested on Saccharomyces cerevisiae ABC16-Green Monster (assay: growth inhibition at single dose (up to 150 µM), below the 70% cut-off for dose-response; higher = more potent). Conditions: 18 h; 30 °C; YPD.
Method in brief: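 Drug-sensitive S. cerevisiae ABC16-Green Monster cells were grown overnight in YPD at 30 °C and diluted to log phase (OD600 0.1–0.2). Each library compound was added at one dose of 150 µM to 200 µl culture per well in 96-well plates, in biological duplicates, with untreated cultures alongside. OD600 was read at 0 h and after 18 h at 30 °C. The value is percent growth inhibition; compounds below 70% in both replicates were not taken to dose-response.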

SMILES | growth inhibition at single dose
CC1COC2(CCN(c3nc(=O)c4cc(C(F)(F)F)cc([N+](=O)[O-])c4s3)CC2)O1 (stereo not drawn) | < 70%
CN1CCN(S(=O)(=O)c2ccc(-c3ccc4c(Nc5ccc6nn[nH]c6c5)ccnc4c3)cc2)CC1 | < 70%
Cc1cc(NC(=O)C2c3ccccc3C(=O)N(CC(C)C)C2c2cccs2)no1 (stereo not drawn) | < 70%
CC(C)c1ccc(CNCC(O)c2ccccc2)cc1 (stereo not drawn) | < 70%
Cc1ccc(CSCc2ccc(C(=O)NC3CC3)o2)cc1 | < 70%
Brc1cnc2nc(-c3ccccc3)[nH]c2c1 | < 70%
Nc1nccnc1C(=O)Nc1nc2cc3c(cc2s1)OCCO3 | < 70%
COc1ccc(CCN2C(=O)c3[nH]nc(-c4cc(Cl)c(C)cc4O)c3C2c2ccccc2F)cc1 (stereo not drawn) | < 70%
CC1(C)Cc2c(c(N3CCOCC3)nc3snc(Br)c23)CO1 | < 70%
COc1ccc2nc(C)cc(OCC(=O)Nc3ccccc3OC)c2c1 | < 70%
COc1ccccc1C(=O)ON=C(N)Cc1cccc2ccccc12 | < 70%
O=C(NCCN1CCCC1)c1cc(NCCN2CCOCC2)nc2ccc(Cl)cc12 | < 70%
CCCCc1ccc(NS(=O)(=O)c2cc3c4c(c2)CCN4C(=O)CC3)cc1 | < 70%
O=C(N/N=C/c1ccc(O)cc1O)c1ccc[n+]([O-])c1 | < 70%
c1ccc(Cn2c(N=Nc3c(Nc4ccccc4)ccc4ccccc34)nc3ccccc32)cc1 | < 70%
O=C(Nc1cccc(-c2nc3ccccc3[nH]2)c1)c1cccc(NC(=O)c2ccco2)c1 | < 70%
N#Cc1ccc(NC(=O)Cn2ncc(Cl)c(Cl)c2=O)cc1 | < 70%
C=CCc1c(C)nc2ccccc2c1O | < 70%
COc1cccc(O)c1CN1CCC2(CCCN(Cc3ccc(F)cc3)C2)C1 (stereo not drawn) | < 70%
CCOc1c(Cl)cc(CNCC(O)c2ccccc2)cc1OC (stereo not drawn) | < 70%
O=c1nc(-c2ccccn2)[nH]c2scc(-c3ccccc3)c12 | < 70%
Cc1cccc(NC(=O)CN2C(=O)/C(=C(/C#N)c3nc4ccccc4[nH]3)c3ccccc32)c1 | < 70%
Cc1ccc(/C=C/C(=O)NC2=NCCS2)c(Br)c1 | < 70%
OC[C@H]1O[C@@H](n2c3ccc(Cl)cc3c3c(-c4cc5ccccc5o4)ncnc32)C(O)[C@H]1O (stereo partly drawn) | < 70%

SMILES | growth inhibition at single dose
Cc1nn(-c2ccccc2)c(C)c1-c1nc(-c2ccccc2)no1 | < 70%
CC1CCCCN1C(=O)NCCc1coc(-c2ccc(F)cc2)n1 (stereo not drawn) | < 70%
CCc1nn(C)c(C(=O)NCc2ccc(Oc3ccc(C)cc3)cc2)c1Cl | < 70%
COc1ccc(O)c(C(=O)c2cnc3cc4c(cc3c2)OCCO4)c1 | < 70%
CCn1cnc2c(Nc3cc(F)cc(F)c3)nc(C#N)nc21 | < 70%
COc1ccccc1CNC(=O)C1c2ccccc2C(=O)N(CC(C)C)C1c1cccs1 (stereo not drawn) | < 70%
COc1ccc(/C(C#N)=C/c2ccccc2OC)cc1 | < 70%
COc1ccc(C(C)=O)cc1N1C(=O)C2C(C1=O)C1(c3ccccc3)C(=O)C2(c2ccccc2)C(c2ccc(C)cc2)=C1c1ccc(C)cc1 (stereo not drawn) | < 70%
Cc1cc(C(=O)Cn2nnc3ccccc3c2=O)c(C)n1-c1ccccc1 | < 70%
COc1nc2ccc(Br)cc2cc1[C@@H](c1ccccc1)[C@@](O)(CCN(C)C)c1cccc2ccccc12 | < 70%
CCN(CC)CCCNc1nc(-c2ccc(Cl)cc2)nc2ccccc12 | < 70%
COc1ccc(N(CCCN2C(=O)c3cccc4cccc(c34)C2=O)C(=O)c2ccccc2Cl)cc1 | < 70%
CN(C)CCNc1cc(-c2ccccc2)nc2ccccc12 | < 70%
O=C(Nc1ncccc1O)c1ccc(S(=O)(=O)NCc2ccco2)cc1 | < 70%
CN1CCCC1CCO[C@](C)(c1ccccc1)c1ccc(Cl)cc1 (stereo partly drawn) | < 70%
CC(C)(C)CC(C)(C)NCC(O)COc1ccc2c(c1)CCC2 (stereo not drawn) | < 70%
COCCNC(=O)c1nn(CCC(C)C)c2c1CN(C(=O)c1cc(C)n[nH]1)CC2 | < 70%
COc1ccc2nc(C)cc(OCC(=O)NCc3ccccc3)c2c1 | < 70%
CC(C)Cn1c(N)c(C(=O)CSc2nnc(COc3ccccc3Cl)o2)c(=O)n(C)c1=O | < 70%
COc1cccc(NC(=O)[C@H](C(C)C)n2c(=O)[nH]c3ccccc3c2=O)c1 | < 70%
COCC(C)Nc1ncnc2scc(-c3ccc(OC)cc3)c12 (stereo not drawn) | < 70%
O=C(Nc1ccc2c(c1)OC1(CCCCC1)O2)c1ccc[nH]c1=S | < 70%
O=C(Cn1ncc(Cl)c(Cl)c1=O)Nc1cc(S(=O)(=O)N2CCOCC2)ccc1Cl | < 70%
Cc1cnc(NC(=O)c2ccc(C3SCCS3)cc2)s1 | < 70%

SMILES | growth inhibition at single dose
CC(=O)c1cc2c(N)c(-c3nc(C(C)(C)C)no3)sc2nc1C | < 70%
Cc1cc(C(=O)Nc2ccc(Cl)cc2)c(C)n1-c1ccccc1 | < 70%
CN(C)c1nc(N)nc(CN(Cc2nc(N)nc(N(C)C)n2)C23CC4CC(CC(C4)C2)C3)n1 | < 70%
N#C/C(=N\Nc1cc(C(F)(F)F)ccc1OCC(F)(F)F)S(=O)(=O)c1ccccc1 | < 70%
CCCCc1ccc(NC(=O)Nc2ccc(O[C@H]3CCCC[C@@H]3N(C)c3ccccc3)c(F)c2)cc1 | < 70%
COc1cccc(-c2nn(C)c3sc(C(=O)NCCN4CCN(c5ccccc5F)CC4)cc23)c1 | < 70%
Clc1ccc(Cl)c(-c2ccc(CNCCN3CCNCC3)o2)c1 | < 70%
Cc1cc(Nc2ccc(C(F)(F)F)cc2)n2ccnc2n1 | < 70%
COc1ccc(CCNc2ncnc3sc(C)cc23)cc1OC | < 70%
CS(=O)(=O)Cc1nc2ccccc2oc1=O | < 70%
CC(C)C(Oc1cccc2ccccc12)C(=O)O (stereo not drawn) | < 70%
Cc1ccc(Cn2ccs/c2=N/C(=O)c2cc3c(s2)CCCCC3)cc1 | < 70%
Nc1nnc(SCc2c(F)cccc2Cl)[nH]1 | < 70%
COc1ccc([N+](=O)[O-])cc1C(=O)Nc1nc2c(s1)CCCCC2 | < 70%
CCS(=O)(=O)N(Cc1ccco1)Cc1cc2ccc(C)cc2nc1O | < 70%
CC(C)c1nc2cc(NC(=O)CSc3nnnn3C3CC3)ccc2o1 | < 70%
O=C(NCc1nnc2n1CCCCC2)c1ccc(-c2ccc(F)cc2)o1 | < 70%
Cc1cc(C(=O)Cn2c(CO)nc3ccccc32)c(C)n1Cc1ccco1 | < 70%
CSc1nc(=O)nc(-c2ccc(Cl)cc2)[nH]1 | < 70%
COc1ccc(C2NCCc3c2[nH]c2ccccc32)cc1CN1CCN(c2ccc(F)cc2)CC1 (stereo not drawn) | < 70%
COC(=O)c1ccccc1NC(=O)/C=C/c1ccc(N2CCCS2(=O)=O)cc1 | < 70%
Cc1cccc(Nc2nc(N)c3ccccc3n2)c1 | < 70%
CCOC(=O)c1nn(CCc2ccccc2)c2c1CN(C(=O)c1cc(C)n[nH]1)CC2 | < 70%
CCOC(=O)c1cc(-c2csc(Nc3c(C)cc(C)cc3C)n2)on1 | < 70%

SMILES | growth inhibition at single dose
COc1ccc(-c2nc(-c3cccc(NC(=O)Cc4ccc(F)cc4)c3)no2)cc1OC | < 70%
COc1cccc(Cn2c(Oc3ccccc3)nc3c2c(=O)n(C)c(=O)n3C)c1 | < 70%
CCN(CC)S(=O)(=O)c1ccc(OC(C)C)c(NC(=O)C2=CN3CCS(=O)(=O)N=C3C=C2)c1 | < 70%
Nc1c(C(=O)N2CCOCC2)sc2nc3c(cc12)CCCCC3 | < 70%
COc1ccc(-c2nonc2NC(=O)c2cccc(C)c2)cc1OC | < 70%
COc1ccc(C=C2SC(Nc3ccccc3)=NC2=O)cc1 | < 70%
O=c1ccc(-c2nc3c4c5c(sc4ncn3n2)CCCCC5)n[nH]1 | < 70%
COc1ccc2c(=O)cc(C(Cl)(Cl)Cl)oc2c1 | < 70%
CCOc1cc(CNC(C)C(O)c2ccccc2)cc(Cl)c1OCC (stereo not drawn) | < 70%
O=C(NC1CC1)c1ccc(N2CCC(Cc3ccccc3)CC2)nc1 | < 70%
O=[N+]([O-])c1cn2c(n1)OC[C@@H](OCc1ccc(OC(F)(F)F)cc1)C2 | < 70%
CCOc1ccc(C2N(C)c3ccccc3N2C)cc1 | < 70%
COc1ccc(OC)c(C(C)Nc2ncnc3sccc23)c1 (stereo not drawn) | < 70%
O=C(Nc1nc(CN2CCOCC2)cs1)c1ccc(-c2ccccc2)cc1 | < 70%
Clc1ccc2[nH]c3c(NCCCN4CCOCC4)ncnc3c2c1 | < 70%
O=C(C1CCN(c2cc(-n3cccc3)ncn2)CC1)N1CCc2ccccc2C1 | < 70%
CCOC(=O)c1cnc2ccc(OC)cc2c1NCc1ccccc1 | < 70%
Cc1ccc(S(=O)(=O)/N=C2\C=C3N(CCO)CCOC3(O)c3ccccc32)c(C)c1 (stereo not drawn) | < 70%
CCOc1ccc(CN(C)CC(=O)NCCc2ccc(S(N)(=O)=O)cc2)cc1 | < 70%
Cc1cc(Cl)c(S(=O)(=O)N2CCCC2)cc1OCC(=O)NC1CCCCC1 | < 70%
O=C1COCc2ccc(Br)cc2N1Cc1ccc(C(F)(F)F)cc1 | < 70%
